Laboratory results from patent publication US9095138B2, “Isoxazoline insecticides” (E.I. du Pont de Nemours and Company, priority 2007, dated 2015).

Assays:
Assay type in all cases: in vivo
[1] = tested on: western flower thrips (Frankliniella occidentalis); experiment: Test E: control of western flower thrips on Soleil bean plant, contact and/or systemic; settings: adult thrips, assessed after 6 days, replicated three times
Protocol: (§1) Test compounds were formulated using a solution containing 10% acetone, 90% water and 300 ppm X-77™ Spreader Lo-Foam Formula non-ionic surfactant containing alkylarylpolyoxyethylene, free fatty acids, glycols and isopropanol (Loveland Industries, Inc. Greeley, Colo., USA). The formulated compounds were applied in 1 mL of liquid through a SUJ2 atomizer nozzle with ⅛ JJ custom body (Spraying Systems Co. Wheaton, Ill., USA) positioned 1.27 cm (0.5 inches) above the top of each test unit. All experimental compounds in these tests were sprayed at 50 ppm, and the test was replicated three times. After spraying of the formulated test compound, each test unit was allowed to dry for 1 h and then a black, screened cap was placed on top. The test units were held for 6 days in a growth chamber at 25° C. and 70% relative humidity. Plant feeding damage was then visually assessed based on foliage consumed and a pest mortality rating was also counted and calculated for each test unit.
For evaluating control of the western flower thrips (Frankliniella occidentalis) through contact and/or systemic means, the test unit consisted of a small open container with a 5-7 day old Soleil Bean plant inside. Test compounds were formulated and sprayed as described for Test A. All experimental compounds in these tests were sprayed at 250 or 50 ppm as noted, and the test was replicated three times. After spraying, the test units were allowed to dry for 1 hour and then 22-27 adult thrips were added to each unit and then a black, screened cap was placed on top. The test units were held for 6 days at 25° C. and 45-55% relative humidity. A mortality rating was assessed along with a plant damage rating for each test unit.

[2] = tested on: diamondback moth (Plutella xylostella); experiment: Test A: control of diamondback moth on radish plant, foliar spray; settings: sprayed at 50 ppm; neonate larvae on radish; assessed after 6 days; replicated three times
Text: For evaluating control of diamondback moth (Plutella xylostella) the test unit consisted of a small open container with a 12-14-day-old radish plant inside. This was pre-infested with about 50 neonate larvae that were dispensed into the test unit via corn-cob grits using a bazooka inoculator. The larvae moved onto the test plant after being dispensed into the test unit.
as §1

[3] = tested on: fall armyworm (Spodoptera frugiperda); experiment: Test B: control of fall armyworm on corn (maize) plant, foliar spray; settings: sprayed at 50 ppm; 1-day-old larvae on corn; replicated three times
Protocol: as §1
For evaluating control of fall armyworm (Spodoptera frugiperda) the test unit consisted of a small open container with a 4-5-day-old corn (maize) plant inside. This was pre-infested (using a core sampler) with 10-15 1-day-old larvae on a piece of insect diet. Test compounds were formulated and sprayed at 50 ppm as described for Test A and replicated three times. After spraying, the test units were maintained in a growth chamber and then the control efficacy was rated for each test unit as described for Test A.

| Structure (SMILES) | control efficacy (feeding damage or mortality): very good to excellent levels ([1]; sprayed at 50 ppm) | control efficacy (feeding damage or mortality): very good to excellent levels ([1]; sprayed at 250 ppm) | control efficacy (feeding damage or mortality): very good to excellent levels [2] | control efficacy (feeding damage or mortality): very good to excellent levels [3] |
| --- | --- | --- | --- | --- |
| COCCNC(=O)CNC(=O)c1ccc(C2=NOC(c3cc(Cl)cc(Cl)c3)(C(F)(F)F)C2)c2ccccc12 (stereo not drawn) [Compound 47] | 20% or less feeding damage or 80% or more mortality | 20% or less feeding damage or 80% or more mortality | 20% or less feeding damage or 80% or more mortality | 20% or less feeding damage or 80% or more mortality |
| CSCCNC(=O)CNC(=O)c1ccc(C2=NOC(c3cc(Cl)c(Cl)c(Cl)c3)(C(F)(F)F)C2)c2ccccc12 (stereo not drawn) [Compound 49] |  | 20% or less feeding damage or 80% or more mortality | 20% or less feeding damage or 80% or more mortality | 20% or less feeding damage or 80% or more mortality |
| O=C(CNC(=O)c1ccc(C2=NOC(c3cc(Cl)cc(Cl)c3)(C(F)(F)F)C2)c2ccccc12)NC1CC1 (stereo not drawn) [Compound 50] | 20% or less feeding damage or 80% or more mortality | 20% or less feeding damage or 80% or more mortality | 20% or less feeding damage or 80% or more mortality | 20% or less feeding damage or 80% or more mortality |
| C[C@@H](NC(=O)c1ccc(C2=NOC(c3cc(Cl)cc(Cl)c3)(C(F)(F)F)C2)c2ccccc12)C(=O)NC1CC1 (stereo partly drawn) [Compound 53] | 20% or less feeding damage or 80% or more mortality | 20% or less feeding damage or 80% or more mortality | 20% or less feeding damage or 80% or more mortality | 20% or less feeding damage or 80% or more mortality |
| O=C(CNC(=O)c1ccc(C2=NOC(c3cc(C(F)(F)F)cc(C(F)(F)F)c3)(C(F)(F)F)C2)c2ccccc12)NC1CC1 (stereo not drawn) [Compound 55] | 20% or less feeding damage or 80% or more mortality | 20% or less feeding damage or 80% or more mortality | 20% or less feeding damage or 80% or more mortality | 20% or less feeding damage or 80% or more mortality |
| C[C@@H](NC(=O)c1ccc(C2=NOC(c3cc(C(F)(F)F)cc(C(F)(F)F)c3)(C(F)(F)F)C2)c2ccccc12)C(=O)NC1CC1 (stereo partly drawn) [Compound 64] | 20% or less feeding damage or 80% or more mortality | 20% or less feeding damage or 80% or more mortality | 20% or less feeding damage or 80% or more mortality | 20% or less feeding damage or 80% or more mortality |
| C[C@@H](NC(=O)c1ccc(C2=NOC(c3cc(C(F)(F)F)cc(C(F)(F)F)c3)(C(F)(F)F)C2)c2ccccc12)C(N)=O (stereo partly drawn) [Compound 65] | 20% or less feeding damage or 80% or more mortality |  | 20% or less feeding damage or 80% or more mortality | 20% or less feeding damage or 80% or more mortality |
| C[C@@H](NC(=O)c1ccc(C2=NOC(c3cc(C(F)(F)F)cc(C(F)(F)F)c3)(C(F)(F)F)C2)c2ccccc12)C(=O)NCC1CC1 (stereo partly drawn) [Compound 66] | 20% or less feeding damage or 80% or more mortality | 20% or less feeding damage or 80% or more mortality | 20% or less feeding damage or 80% or more mortality | 20% or less feeding damage or 80% or more mortality |
| CC(NC(=O)c1ccc(C2=NOC(c3cc(C(F)(F)F)cc(C(F)(F)F)c3)(C(F)(F)F)C2)c2ccccc12)C(=O)NC1CC1 (stereo not drawn) [Compound 67] | 20% or less feeding damage or 80% or more mortality | 20% or less feeding damage or 80% or more mortality | 20% or less feeding damage or 80% or more mortality | 20% or less feeding damage or 80% or more mortality |
| CC(NC(=O)c1ccc(C2=NOC(c3cc(C(F)(F)F)cc(C(F)(F)F)c3)(C(F)(F)F)C2)c2ccccc12)C(=O)NCC1CC1 (stereo not drawn) [Compound 68] | 20% or less feeding damage or 80% or more mortality | 20% or less feeding damage or 80% or more mortality | 20% or less feeding damage or 80% or more mortality | 20% or less feeding damage or 80% or more mortality |
| CC(NC(=O)c1ccc(C2=NOC(c3cc(C(F)(F)F)cc(C(F)(F)F)c3)(C(F)(F)F)C2)c2ccccc12)C(N)=O (stereo not drawn) [Compound 69] | 20% or less feeding damage or 80% or more mortality |  | 20% or less feeding damage or 80% or more mortality | 20% or less feeding damage or 80% or more mortality |
| NC(=O)CNC(=O)c1ccc(C2=NOC(c3cc(C(F)(F)F)cc(C(F)(F)F)c3)(C(F)(F)F)C2)c2ccccc12 (stereo not drawn) [Compound 70] | 20% or less feeding damage or 80% or more mortality |  | 20% or less feeding damage or 80% or more mortality | 20% or less feeding damage or 80% or more mortality |
| O=C(CNC(=O)c1ccc(C2=NOC(c3cc(C(F)(F)F)cc(C(F)(F)F)c3)(C(F)(F)F)C2)c2ccccc12)NCC1CC1 (stereo not drawn) [Compound 71] | 20% or less feeding damage or 80% or more mortality |  | 20% or less feeding damage or 80% or more mortality | 20% or less feeding damage or 80% or more mortality |
| C[C@@H](NC(=O)c1ccc(C2=NOC(c3cc(Cl)cc(C(F)(F)F)c3)(C(F)(F)F)C2)c2ccccc12)C(=O)NC1CC1 (stereo partly drawn) [Compound 72] | 20% or less feeding damage or 80% or more mortality | 20% or less feeding damage or 80% or more mortality | 20% or less feeding damage or 80% or more mortality | 20% or less feeding damage or 80% or more mortality |
